# Reference: patent US20240246937A1 (MERCK SHARP & DOHME LLC, priority 2021, published 2024)
# Target: recombinant IL4I1 (Homo sapiens (Human), UniProt Q96RQ9)
# Assay: IL4I1 Enzymatic Assay (Amplex Red/HRP coupled fluorescence detection of H2O2)
# Format: biochemical
# Settings: 240 min; recombinant IL4I1, four-hour pre-incubation with compound
# Summary of the method: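 Recombinant human IL4I1 (1 nM final) pre-incubated 4 h with compound at ambient temperature in 50 mM Hepes pH 7.0, 0.005% Tween20. Started with 1 mM each Phe/Tyr/Trp plus Amplex Red/HRP; H2O2-derived resorufin fluorescence read after 120 min; EC50 from ten-point 1:3 titration, four-parameter fit.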
# recombinant IL4I1, sequence (Q96RQ9 22-567): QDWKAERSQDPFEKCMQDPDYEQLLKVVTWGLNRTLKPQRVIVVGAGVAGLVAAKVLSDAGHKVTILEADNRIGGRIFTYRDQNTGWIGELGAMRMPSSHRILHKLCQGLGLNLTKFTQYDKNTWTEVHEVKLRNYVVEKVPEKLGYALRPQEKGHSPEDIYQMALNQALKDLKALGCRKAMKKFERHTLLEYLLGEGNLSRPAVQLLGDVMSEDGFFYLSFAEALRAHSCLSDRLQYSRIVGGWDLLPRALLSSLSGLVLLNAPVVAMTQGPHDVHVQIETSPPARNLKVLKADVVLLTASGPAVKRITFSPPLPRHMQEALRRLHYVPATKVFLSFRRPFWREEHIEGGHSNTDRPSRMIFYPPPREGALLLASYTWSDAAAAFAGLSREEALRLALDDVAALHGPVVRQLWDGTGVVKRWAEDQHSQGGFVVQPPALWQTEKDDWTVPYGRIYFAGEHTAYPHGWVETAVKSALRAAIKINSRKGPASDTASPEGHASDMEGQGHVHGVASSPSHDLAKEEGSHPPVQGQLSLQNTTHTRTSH
row,EC50,SMILES
1,47 nM,"O=C1C(=O)N(C2CCCC2)CCN1Cc1nnc(N2CC3CC3C2)s1 (stereo not shown) [Example 313, 1-((5-(3-azabicyclo[3.1.0]hexan-3-yl)-1,3,4-thiadiazol-2-yl)methyl)-4-cyclopentylpiperazine-2,3-dione]"
2,43 nM,"O=C1C(=O)N(C2CCCC2)CCN1Cc1ccc(N2CCCC2)nn1 [Example 314, 1-cyclopentyl-4-((6-(pyrrolidin-1-yl)pyridazin-3-yl)methyl)piperazine-2,3-dione]"
3,32 nM,"O=C1C(=O)N(C2CCCC2)CCN1Cc1ccc(N2CCCCC2)nn1 [Example 316, 1-cyclopentyl-4-((6-(piperidin-1-yl)pyridazin-3-yl)methyl)piperazine-2,3-dione]"
4,45 nM,"O=C1C(=O)N(C2CCCC2)CCN1Cc1ccc(N2CCOCC2)nn1 [Example 317, 1-cyclopentyl-4-((6-morpholinopyridazin-3-yl)methyl)piperazine-2,3-dione]"
5,36 nM,"O=C1C(=O)N(C2CCCC2)CCN1Cc1ccc(N2CCC2)nn1 [Example 318, 1-((6-(azetidin-1-yl)pyridazin-3-yl)methyl)-4-cyclopentylpiperazine-2,3-dione]"
6,30 nM,"O=C1C(=O)N(C2CCCC2)CCN1Cc1ccc(N2CCC(F)(F)C2)nn1 [Example 319, 1-cyclopentyl-4-((6-(3,3-difluoropyrrolidin-1-yl)pyridazin-3-yl)methyl)piperazine-2,3-dione]"
7,20 nM,"O=C1C(=O)N(C2CCCC2)CCN1Cc1ccc(N2CC3CC3C2)nn1 (stereo not shown) [Example 320, 1-((6-(3-azabicyclo[3.1.0]hexan-3-yl)pyridazin-3-yl)methyl)-4-cyclopentylpiperazine-2,3-dione]"
8,21 nM,"O=C1C(=O)N(C2CCCC2)CCN1Cc1ccc(-n2ccnn2)nn1 [Example 321, 1-((6-(1H-1,2,3-triazol-1-yl)pyridazin-3-yl)methyl)-4-cyclopentylpiperazine-2,3-dione]"
9,28 nM,"O=C1C(=O)N(C2CCCC2)CCN1Cc1ccc(-n2nccn2)nn1 [Example 322, 1-((6-(2H-1,2,3-triazol-2-yl)pyridazin-3-yl)methyl)-4-cyclopentylpiperazine-2,3-dione]"
10,157 nM,"O=C1C(=O)N(C2CCCC2)CCN1Cc1nnc(-n2nccn2)s1 [Example 323, 1-((5-(2H-1,2,3-triazol-2-yl)-1,3,4-thiadiazol-2-yl)methyl)-4-cyclopentylpiperazine-2,3-dione]"
11,53 nM,"O=C1C(=O)N(C2CCC2)CCN1Cc1cnc(-n2nccn2)cn1 [Example 324, 1-((5-(2H-1,2,3-triazol-2-yl)pyrazin-2-yl)methyl)-4-cyclobutylpiperazine-2,3-dione]"
12,33 nM,"O=C1C(=O)N(C23CC(C2)C3)CCN1Cc1cnc(-n2nccn2)cn1 [Example 325, 1-((5-(2H-1,2,3-triazol-2-yl)pyrazin-2-yl)methyl)-4-(bicyclo[1.1.1]pentan-1-yl)piperazine-2,3-dione]"
13,20 nM,"O=C1C(=O)N([C@H]2C[C@@H](c3ccccc3)C2)CCN1Cc1ccc(-n2nccn2)nn1 [Example 326, 1-((6-(2H-1,2,3-triazol-2-yl)pyridazin-3-yl)methyl)-4-((cis)-3-phenylcyclobutyl)piperazine-2,3-dione]"
14,16 nM,"O=C1C(=O)N([C@H]2C[C@@H](c3ccccc3)C2)CCN1Cc1ccc(-n2ccnn2)nn1 [Example 327, 1-((6-(1H-1,2,3-triazol-1-yl)pyridazin-3-yl)methyl)-4-((cis)-3-phenylcyclobutyl)piperazine-2,3-dione]"
15,7 nM,"O=c1c(=O)n(C2CCCC2)ccn1Cc1ccc(-n2ccnn2)nn1 [Example 328, 1-((6-(1H-1,2,3-triazol-1-yl)pyridazin-3-yl)methyl)-4-cyclopentyl-1,4-dihydropyrazine-2,3-dione]"
16,15 nM,"O=c1c(=O)n(C2CCC2)ccn1Cc1ccc(-n2cccn2)nn1 [Example 329, 1-((6-(1H-pyrazol-1-yl)pyridazin-3-yl)methyl)-4-cyclobutyl-1,4-dihydropyrazine-2,3-dione]"
17,16 nM,"O=c1c(=O)n(C2CCC2)ccn1Cc1ccc(-n2ccnc2)nn1 [Example 330, 1-((6-(1H-imidazol-1-yl)pyridazin-3-yl)methyl)-4-cyclobutyl-1,4-dihydropyrazine-2,3-dione]"
18,9 nM,"O=c1c(=O)n([C@H]2C[C@H]3C[C@H]3C2)ccn1Cc1ccc(-n2ccnn2)nn1 [Example 331, 1-((6-(1H-1,2,3-triazol-1-yl)pyridazin-3-yl)methyl)-4-((cis)-bicyclo[3.1.0]hexan-3-yl)-1,4-dihydropyrazine-2,3-dione]"
19,76 nM,"CC1(n2ccn(Cc3ccc(-n4nccn4)nn3)c(=O)c2=O)CC1 [Example 332, 1-((6-(2H-1,2,3-triazol-2-yl)pyridazin-3-yl)methyl)-4-(1-methylcyclopropyl)-1,4-dihydropyrazine-2,3-dione]"
20,94 nM,"N#CC1(n2ccn(Cc3ccc(-n4nccn4)nn3)c(=O)c2=O)CC1 [Example 333, 1-(4-((6-(2H-1,2,3-triazol-2-yl)pyridazin-3-yl)methyl)-2,3-dioxo-3,4-dihydropyrazin-1(2H)-yl)cyclopropane-1-carbonitrile]"

row,EC50,SMILES
1,29 nM,"CC1(n2ccn(Cc3ccc(-n4ccnn4)nn3)c(=O)c2=O)CC1 [Example 334, 1-((6-(1H-1,2,3-triazol-1-yl)pyridazin-3-yl)methyl)-4-(1-methylcyclopropyl)-1,4-dihydropyrazine-2,3-dione]"
2,90 nM,"N#CC1(n2ccn(Cc3ccc(-n4ccnn4)nn3)c(=O)c2=O)CC1 [Example 335, 1-(4-((6-(1H-1,2,3-triazol-1-yl)pyridazin-3-yl)methyl)-2,3-dioxo-3,4-dihydropyrazin-1(2H)-yl)cyclopropane-1-carbonitrile]"
3,20 nM,"O=C1C(=O)N(C2CCCC2)CCN1Cc1ccc(-n2nccn2)nc1 [Example 336, 1-((6-(2H-1,2,3-triazol-2-yl)pyridin-3-yl)methyl)-4-cyclopentylpiperazine-2,3-dione]"
4,15 nM,"O=c1c(=O)n(C2CCCC2)ccn1Cc1ncc(-c2ccccc2)cn1 [Example 337, 1-cyclopentyl-4-((5-phenylpyrimidin-2-yl)methyl)-1,4-dihydropyrazine-2,3-dione]"
5,12 nM,"N#CC1CCC(n2ccn(Cc3nnc(-c4ccccc4)s3)c(=O)c2=O)C1 (stereo not shown) [Example 338, 3-(2,3-dioxo-4-((5-phenyl-1,3,4-thiadiazol-2-yl)methyl)-3,4-dihydropyrazin-1(2H)-yl)cyclopentane-1-carbonitrile]"
6,42 nM,"CCCOc1ccc(CN2CCN(C3CCCC3)C(=O)C2=O)nn1 [Example 339, 1-cyclopentyl-4-((6-propoxypyridazin-3-yl)methyl)piperazine-2,3-dione]"
7,70 nM,"CCOc1ccc(CN2CCN(C3CCCC3)C(=O)C2=O)nn1 [Example 340, 1-cyclopentyl-4-((6-ethoxypyridazin-3-yl)methyl)piperazine-2,3-dione]"
8,69 nM,"O=C1C(=O)N(C2CCCC2)CCN1Cc1ncc(-c2ccccn2)cn1 [Example 342, 1-cyclopentyl-4-((5-(pyridin-2-yl)pyrimidin-2-yl)methyl)piperazine-2,3-dione]"
9,133 nM,"O=C1C(=O)N(C2CCCC2)CCN1Cc1ncc(-c2cc(F)ccn2)cn1 [Example 343, 1-cyclopentyl-4-((5-(4-fluoropyridin-2-yl)pyrimidin-2-yl)methyl)piperazine-2,3-dione]"
10,59 nM,"CC(C)(C)N1CCN(Cc2ncc(-c3ccccc3)cn2)C(=O)C1=O [Example 345, 1-(tert-butyl)-4-((5-phenylpyrimidin-2-yl)methyl)piperazine-2,3-dione]"
11,7 nM,"O=C1C(=O)N(C2CCCC2)CCN1Cc1nnc(-c2ccccc2)s1 [Example 346, 1-cyclopentyl-4-((5-phenyl-1,3,4-thiadiazol-2-yl)methyl)piperazine-2,3-dione]"
12,74 nM,"CC(c1cnn(-c2ccccc2)c1)N1CCN(C2CCCC2)C(=O)C1=O (stereo not shown) [Example 347, 1-cyclopentyl-4-(1-(1-phenyl-1H-pyrazol-4-yl)ethyl)piperazine-2,3-dione]"
13,18 nM,"C[C@H](c1nnc(-c2ccccc2)s1)N1CCN(C2CCCC2)C(=O)C1=O [Example 348, (R)-1-cyclopentyl-4-(1-(5-phenyl-1,3,4-thiadiazol-2-yl)ethyl)piperazine-2,3-dione]"
14,25 nM,"C[C@@H](c1nnc(-c2ccccc2)s1)N1CCN(C2CCCC2)C(=O)C1=O [Example 349, (S)-1-cyclopentyl-4-(1-(5-phenyl-1,3,4-thiadiazol-2-yl)ethyl)piperazine-2,3-dione]"
15,5 nM,"O=C1C(=O)N(C2CCCC2)CCN1CCc1nnc(-c2ccccc2)s1 [Example 350, 1-cyclopentyl-4-(2-(5-phenyl-1,3,4-thiadiazol-2-yl)ethyl)piperazine-2,3-dione]"
16,8 nM,"O=C1C(=O)N(C2CCCC2)CCN1Cc1nnc(-c2ccc(F)cc2)s1 [Example 351, 1-cyclopentyl-4-((5-(4-fluorophenyl)-1,3,4-thiadiazol-2-yl)methyl)piperazine-2,3-dione]"
17,13 nM,"CC(Cc1nnc(-c2ccccc2)s1)N1CCN(C2CCCC2)C(=O)C1=O (stereo not shown) [Example 352, 1-cyclopentyl-4-(1-(5-phenyl-1,3,4-thiadiazol-2-yl)propan-2-yl)piperazine-2,3-dione]"
18,11 nM,"CC(CN1CCN(C2CCCC2)C(=O)C1=O)c1nnc(-c2ccccc2)s1 (stereo not shown) [Example 353, 1-cyclopentyl-4-(2-(5-phenyl-1,3,4-thiadiazol-2-yl)propyl)piperazine-2,3-dione]"
19,20 nM,"O=C1C(=O)N(C2CCCC2)CCN1Cc1cc2ccccc2[nH]c1=O [Example 354, 1-cyclopentyl-4-((2-oxo-1,2-dihydroquinolin-3-yl)methyl)piperazine-2,3-dione]"
20,22 nM,"C[C@H](c1nnc(-c2ccccc2)s1)N1CCN(C2CCC2)C(=O)C1=O [Example 355, (R)-1-cyclobutyl-4-(1-(5-phenyl-1,3,4-thiadiazol-2-yl)ethyl)piperazine-2,3-dione]"
